In patent US8952024B2, “Herbicidal pyrimidone derivatives” (E I du Pont de Nemours and Company, priority 2009, dated 2015):

Tests used:
Test in all cases: Test B pre-/postemergence plant response
Type in all cases: in vivo
[1] = test system: Surinam grass (Brachiaria decumbens); conditions: for Surinam Grass plant response rating (0 to 100 scale): 0 is no effect, 13 to 15 days
Summary of the method: (§1)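 Seeds sown in loam–sand blend were treated preemergence, and plants at 2–18 cm (1- to 4-leaf stage) in peat-based medium were treated postemergence; compounds were formulated in non-phytotoxic solvent with surfactant. After 13–15 days in greenhouse, response was visually rated against controls, 0 (no effect) to 100 (complete control).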

[2] = test system: cocklebur (Xanthium strumarium); conditions: for Cocklebur plant response rating (0 to 100 scale): 0 is no effect, 13 to 15 days
Summary of the method: as §1

[3] = test system: galium (catchweed bedstraw, Galium aparine); conditions: Preemergence
Summary of the method: as §1

[4] = test system: kochia (Kochia scoparia); conditions: for Kochia plant response rating (0 to 100 scale): 0 is no effect, 13 to 15 days
Summary of the method: as §1

[5] = test system: lambsquarters (Chenopodium album); conditions: for Lambsquarters plant response rating (0 to 100 scale): 0 is no effect, 13 to 15 days
Summary of the method: as §1

[6] = test system: large crabgrass (Digitaria sanguinalis); conditions: for Crabgrass, Large plant response rating (0 to 100 scale): 0 is no effect, 13 to 15 days
Summary of the method: as §1

[7] = test system: nightshade (eastern black nightshade, Solanum ptycanthum); conditions: Preemergence
Summary of the method: as §1

[8] = test system: sunflower (common oilseed sunflower, Helianthus annuus); conditions: Preemergence
Summary of the method: as §1

[9] = test system: wild oat (Avena fatua)
Summary of the method: as §1

[10] = test system: woolly cupgrass (Eriochloa villosa); conditions: for Cupgrass, Woolly plant response rating (0 to 100 scale): 0 is no effect, 13 to 15 days
Summary of the method: as §1

[11] = test system: yellow nutsedge (Cyperus esculentus); conditions: for Nutsedge, Yellow plant response rating (0 to 100 scale): 0 is no effect, 13 to 15 days
Summary of the method: as §1

[12] = 16 g ai/ha, Postemergence, 0 to 100 scale
[13] = 31 g ai/ha, postemergence, scale 0 to 100, 0 is no effect, 100 is complete control
[14] = 62 g ai/ha, postemergence, 100 is complete control
[15] = Postemergence, 125 g ai/ha, visual rating after 13 to 15 days, scale 0 (no effect) to 100 (complete control)
[16] = Preemergence, 31 g ai/ha, scale 0 to 100 (0 no effect, 100 complete control)
[17] = Preemergence, 62 g ai/ha, scale 0 to 100, 0 no effect, 100 complete control
[18] = Preemergence, 125 g ai/ha, scale 0 to 100, 0 no effect, 100 complete control
[19] = Preemergence, 16 g ai/ha, scale 0 to 100, 0 no effect, 100 complete control
[20] = 125 g ai/ha, scale 0 to 100, 0 no effect, 100 complete control
[21] = 31 g ai/ha, scale 0 to 100 (0 no effect, 100 complete control)
[22] = 62 g ai/ha, scale 0 to 100, 0 no effect, 100 complete control
[23] = Postemergence, 250 g ai/ha, scale 0 to 100 (0 no effect, 100 complete control)
[24] = 250 g ai/ha, Preemergence, 0 to 100 scale

Compound: O=C1CCCC(O)=C1C(=O)c1cnc(-c2cccc(Br)c2)n(-c2ccccc2)c1=O [Compound 69]
- Plant response rating, Surinam Grass [1, 12]: 75
- Plant response rating, Surinam Grass [1, 13]: 85
- Surinam Grass plant response rating (0 to 100 scale) [1, 14]: 90
- Plant response rating, Surinam Grass [1, 15]: 100
- Plant response rating, Surinam Grass [1, 16]: 80
- Plant response rating, Surinam Grass [1, 17]: 100
- Plant response rating, Surinam Grass [1, 18]: 100
- Plant response rating, Cocklebur [2, 12]: 0
- Plant response rating, Cocklebur [2, 13]: 0
- Cocklebur plant response rating (0 to 100 scale) [2, 14]: 0
- Plant response rating, Cocklebur [2, 15]: 20
- Plant response rating, Cocklebur [2, 19]: 0
- Plant response rating, Cocklebur [2, 16]: 0
- Plant response rating, Cocklebur [2, 17]: 0
- Plant response rating, Cocklebur [2, 18]: 10
- Plant response rating, Galium [3, 20]: 0
- Plant response rating, Kochia [4, 12]: 60
- Plant response rating, Kochia [4, 13]: 60
- Kochia plant response rating (0 to 100 scale) [4, 14]: 70
- Plant response rating, Kochia [4, 15]: 80
- Plant response rating, Kochia [4, 16]: 0
- Plant response rating, Kochia [4, 17]: 20
- Plant response rating, Kochia [4, 18]: 45
- Plant response rating, Lambsquarters [5, 12]: 100
- Plant response rating, Lambsquarters [5, 13]: 100
- Lambsquarters plant response rating (0 to 100 scale) [5, 14]: 100
- Plant response rating, Lambsquarters [5, 15]: 100
- Plant response rating, Lambsquarters [5, 19]: 95
- Plant response rating, Lambsquarters [5, 16]: 98
- Plant response rating, Lambsquarters [5, 17]: 100
- Plant response rating, Lambsquarters [5, 18]: 100
- Plant response rating, Crabgrass, Large [6, 12]: 95
- Plant response rating, Crabgrass, Large [6, 13]: 95
- Crabgrass, Large plant response rating (0 to 100 scale) [6, 14]: 95
- Plant response rating, Crabgrass, Large [6, 15]: 98
- Plant response rating, Crabgrass, Large [6, 19]: 75
- Plant response rating, Crabgrass, Large [6, 16]: 98
- Plant response rating, Crabgrass, Large [6, 17]: 100
- Plant response rating, Crabgrass, Large [6, 18]: 100
- Plant response rating, Nightshade ([7]; 16 g ai/ha, scale 0 to 100, 0 no effect, 100 complete control): 80
- Plant response rating, Nightshade [7, 21]: 95
- Plant response rating, Nightshade [7, 22]: 98
- Plant response rating, Nightshade [7, 20]: 98
- Plant response rating, Sunflower [8, 21]: 0
- Plant response rating, Sunflower [8, 22]: 0
- Plant response rating, Sunflower [8, 20]: 5
- Plant response rating, Oat, Wild [9, 12]: 50
- Plant response rating, Oat, Wild [9, 13]: 60
- Oat, Wild plant response rating (0 to 100 scale) ([9]; 62 g ai/ha, postemergence, 0 is no effect, 100 is complete control, 13 to 15 days): 80
- Plant response rating, Oat, Wild [9, 15]: 85
- Plant response rating, Oat, Wild [9, 19]: 0
- Plant response rating, Oat, Wild [9, 16]: 0
- Plant response rating, Oat, Wild [9, 17]: 0
- Plant response rating, Oat, Wild [9, 18]: 0
- Plant response rating, Cupgrass, Woolly [10, 12]: 75
- Plant response rating, Cupgrass, Woolly [10, 13]: 90
- Cupgrass, Woolly plant response rating (0 to 100 scale) [10, 14]: 95
- Plant response rating, Cupgrass, Woolly [10, 15]: 95
- Plant response rating, Cupgrass, Woolly [10, 19]: 0
- Plant response rating, Cupgrass, Woolly [10, 16]: 0
- Plant response rating, Cupgrass, Woolly [10, 17]: 0
- Plant response rating, Cupgrass, Woolly [10, 18]: 45
- Plant response rating, Nutsedge, Yellow [11, 12]: 5
- Plant response rating, Nutsedge, Yellow [11, 13]: 5
- Nutsedge, Yellow plant response rating (0 to 100 scale) [11, 14]: 10
- Plant response rating, Nutsedge, Yellow [11, 15]: 40
- Plant response rating, Nutsedge, Yellow [11, 19]: 0
- Plant response rating, Nutsedge, Yellow [11, 16]: 0
- Plant response rating, Nutsedge, Yellow [11, 17]: 0
- Plant response rating, Nutsedge, Yellow [11, 18]: 0

Compound: CCCc1ncc(C(=O)C2=C(O)CCCC2=O)c(=O)n1CCC [Compound 72]
- Plant response rating, Surinam Grass [1, 13]: 75
- Surinam Grass plant response rating (0 to 100 scale) [1, 14]: 80
- Plant response rating, Surinam Grass [1, 15]: 80
- Plant response rating, Surinam Grass [1, 23]: 100
- Plant response rating, Surinam Grass [1, 16]: 45
- Plant response rating, Surinam Grass [1, 17]: 75
- Plant response rating, Surinam Grass [1, 18]: 75
- Plant response rating, Cocklebur [2, 13]: 75
- Cocklebur plant response rating (0 to 100 scale) [2, 14]: 80
- Plant response rating, Cocklebur [2, 24]: 80
- Plant response rating, Cocklebur [2, 15]: 90
- Plant response rating, Cocklebur [2, 23]: 95
- Plant response rating, Cocklebur [2, 16]: 10
- Plant response rating, Cocklebur [2, 17]: 50
- Plant response rating, Cocklebur [2, 18]: 70
- Plant response rating, Galium ([3]; 250 g ai/ha, 0 to 100 scale): 85
- Plant response rating, Galium [3, 21]: 0
- Plant response rating, Galium [3, 22]: 85
- Plant response rating, Galium [3, 20]: 85
- Plant response rating, Kochia [4, 13]: 75
- Kochia plant response rating (0 to 100 scale) [4, 14]: 85
- Plant response rating, Kochia [4, 24]: 85
- Plant response rating, Kochia [4, 15]: 90
- Plant response rating, Kochia [4, 23]: 90
- Plant response rating, Kochia [4, 16]: 45
- Plant response rating, Kochia [4, 17]: 75
- Plant response rating, Kochia [4, 18]: 85
- Plant response rating, Lambsquarters [5, 13]: 90
- Lambsquarters plant response rating (0 to 100 scale) [5, 14]: 100
- Plant response rating, Lambsquarters [5, 24]: 100
- Plant response rating, Lambsquarters [5, 15]: 100
- Plant response rating, Lambsquarters [5, 23]: 100
- Plant response rating, Lambsquarters [5, 16]: 98
- Plant response rating, Lambsquarters [5, 17]: 98
- Plant response rating, Lambsquarters [5, 18]: 98
- Plant response rating, Crabgrass, Large [6, 13]: 75
- Crabgrass, Large plant response rating (0 to 100 scale) [6, 14]: 80
- Plant response rating, Crabgrass, Large [6, 24]: 100
- Plant response rating, Crabgrass, Large [6, 15]: 85
- Plant response rating, Crabgrass, Large [6, 23]: 90
- Plant response rating, Crabgrass, Large [6, 16]: 95
- Plant response rating, Crabgrass, Large [6, 17]: 100
- Plant response rating, Crabgrass, Large [6, 18]: 100
- Plant response rating, Nightshade [7, 21]: 95
- Plant response rating, Nightshade [7, 22]: 95
- Plant response rating, Nightshade [7, 20]: 98
- Plant response rating, Sunflower [8, 21]: 25
- Plant response rating, Sunflower [8, 22]: 25
- Plant response rating, Sunflower [8, 20]: 65
- Plant response rating, Oat, Wild [9, 13]: 0
- Plant response rating, Oat, Wild [9, 15]: 30
- Plant response rating, Oat, Wild [9, 23]: 40
- Plant response rating, Oat, Wild [9, 16]: 0
- Plant response rating, Oat, Wild [9, 17]: 0
- Plant response rating, Oat, Wild [9, 18]: 0
- Plant response rating, Cupgrass, Woolly [10, 13]: 45
- Cupgrass, Woolly plant response rating (0 to 100 scale) [10, 14]: 45
- Plant response rating, Cupgrass, Woolly [10, 24]: 65
- Plant response rating, Cupgrass, Woolly [10, 15]: 50
- Plant response rating, Cupgrass, Woolly [10, 23]: 50
- Plant response rating, Cupgrass, Woolly [10, 16]: 0
- Plant response rating, Cupgrass, Woolly [10, 17]: 0
- Plant response rating, Cupgrass, Woolly [10, 18]: 45
- Plant response rating, Nutsedge, Yellow [11, 13]: 35
- Nutsedge, Yellow plant response rating (0 to 100 scale) [11, 14]: 65
- Plant response rating, Nutsedge, Yellow [11, 15]: 65
- Plant response rating, Nutsedge, Yellow [11, 23]: 75
- Plant response rating, Nutsedge, Yellow [11, 16]: 40
- Plant response rating, Nutsedge, Yellow [11, 17]: 70
- Plant response rating, Nutsedge, Yellow [11, 18]: 75
